Experimental data reported in patent US12478605B2, “Biochanin a derivatives for treatment of BEST1-related retinopathies” (Universität Regensburg, priority 2020, dated 2025).
Structures can show the parent of a compound that is named as a salt.

Experiments:
mutant BEST1 R218C [1] = target: T1, mutant BEST1 R218C (Homo sapiens, UniProt O76090, R218C); assay: YFP-based I- efflux assay in MDCKII cells co-expressing YFP and mutant BEST1 R218C; assay type: cell-based; details: 5 μM, compound addition for 24 h, FIGS. 6-8
T1 construct: expressed in transfected cells
T1 sequence (O76090 1-585 R218C): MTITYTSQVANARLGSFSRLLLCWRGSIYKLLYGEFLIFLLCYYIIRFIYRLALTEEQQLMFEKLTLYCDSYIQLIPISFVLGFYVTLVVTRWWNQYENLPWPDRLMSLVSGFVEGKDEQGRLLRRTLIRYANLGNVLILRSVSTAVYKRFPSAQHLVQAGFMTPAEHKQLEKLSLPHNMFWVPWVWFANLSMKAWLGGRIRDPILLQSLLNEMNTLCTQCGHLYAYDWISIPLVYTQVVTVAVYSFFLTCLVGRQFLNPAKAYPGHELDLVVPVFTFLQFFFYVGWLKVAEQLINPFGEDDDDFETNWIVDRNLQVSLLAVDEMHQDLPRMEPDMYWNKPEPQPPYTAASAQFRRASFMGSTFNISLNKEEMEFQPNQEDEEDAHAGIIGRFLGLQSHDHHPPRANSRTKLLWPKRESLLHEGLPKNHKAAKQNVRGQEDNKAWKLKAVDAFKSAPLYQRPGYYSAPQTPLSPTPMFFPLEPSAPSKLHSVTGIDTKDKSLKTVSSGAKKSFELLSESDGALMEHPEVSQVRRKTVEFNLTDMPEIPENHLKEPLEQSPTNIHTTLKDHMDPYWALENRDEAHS
Protocol: MDCKII cells co-expressing yellow fluorescence protein (YFP) and mutant BEST1 R218C were seeded on black 96-well plates and cultivated for 6 days to achieve polarity, a crucial requirement for correct basolateral localization of BEST1 in epithelial cells. Compounds were tested at 5 μM concentration in a 96-well format. After compound addition for 24 h, cells were subjected to an outwardly directed iodid (I^−)-gradient to drive BEST1-mediated I^− efflux and produce increasing fluorescence signals. Each assay consisted of recording of YFP quenching after I^− pre-incubation for 6 min (=100% value), followed by 7 min of recording of increasing fluorescence after addition of the chloride (Cr) containing solution. Changes of fluorescence intensities were monitored on a plate reader. The effect on the kinetics of I— efflux was tested for Biochanin A (FIG. 6A), Trimethoxyisoflavone (FIG. 6B), 5,4-dimethoxy hydroxyisoflavone (FIG. 6C), Biochanin A-7-methyl ether (FIG. 6D), Biochanin A-7-acetate (FIG. 6E), Biochanin A diacetate (FIG. 6F), Biochanin A-7-pentanoate (FIG. 6G), Biochanin A dipentanoate (FIG. 6H), Biochanin A-7-pivalate (FIG. 7A), Biochanin A-dipavalate (FIG. 7B), Biochanin A-7-acrylate (FIG. 7C), Biochanin A diacrylate (FIG. 7D), Biochanin A-7-methyl fumarate (FIG. 7E), Biochanin A-di(methyl fumarate) (FIG. 7F), Biochanin A-7-butylcarbamate (FIG. 7G), Biochanin A di(butylcarbamate) (FIG. 7H), Biochanin A-7-phosphate disodium salt (FIG. 8A), Biochanin A-7-isopropylate (FIG. 8B), 7-pivaloxymethyl-Biochanin A (FIG. 8C), Biochanin A diisopropylate (FIG. 8D), Biochanin A-7-isopropyl carbonate (FIG. 8E), Biochanin A diisopropyl carbonate (FIG. 8F), Isopropyloxycarbonylmethoxy-Biochanin A (FIG. 8G).

mutant BEST1 R218C [2] = target: T1, mutant BEST1 R218C; assay: YFP-halide transport assay (I- influx), MDCKII cells expressing mutant BEST1-R218C; assay type: cell-based; details: MDCKII cells; cell line not stated; FIG. 4D
Protocol: Human hiPSC-RPE or MDCKII cells were transduced via lentivirus particles which were produced by co-transfecting HEK293T cells with the yellow fluorescence protein (YFPH148Q/I152L)-pLJM1 and helper plasmids pMD2.G and psPAX2 using the Ca^2+ phospate transfection method. After six weeks of cultivation in 96-well black microtiter plates, cells were incubated with 100 mM Cl^− containing solution and basal YFP fluorescence was measured in a Tecan microplate reader. Subsequently Cl^− was replaced with equimolar I^− and decrease of YFP fluorescence intensity was monitored for another 2 min in 10 sec intervals.
To analyze BEST1-mediated anion transport in the cell lines generated in the previous examples, a well-established halide transport assay (Galietta et al., 2001) was adapted. […] Addition of I— leads to specific YFP quenching over time and changes of fluorescence intensities can be monitored on a plate reader. MDCKII cells were incubated with 100 mM Cl— containing solution and steady state YFP fluorescence signal intensities were measured after 6 minutes. Subsequently, Cl— was replaced by equimolar I— and anion permeability was monitored by decreasing YFP intensities as a result of BEST1-mediated I— influx in a time course up to 2 minutes (FIG. 2B). For several independent BEST1 wildtype cell lines a fast kinetic of decreasing fluorescence intensities to ˜30 to 40% was observed while the untransfected control cell lines remained flat (FIGS. 2C and D).
Example 8—Evaluation of BioA(C2H3O2)2 activity in MDCKII cells MDCKII cells co-expressing YFP and BEST1 wildtype or mutant p.(R218C) were seeded on black 96-well plates and cultivated for 6 days to achieve polarity, a requirement for correct basolateral localization of BEST1 in epithelial cells. Compounds were tested separately at 10 μM concentration in a 96-well format. After compound addition for 24 h, cells were subjected to an inwardly directed I— gradient to drive I— influx and produce decreasing (quenched) fluorescence signals. […]

SMILES | anion transport activity (kinetics of I- efflux) in comparison to untreated cells (mutant BEST1 R218C [1]) | effect on BEST1-mediated I- influx (mutant BEST1 R218C [2])
COc1ccc(-c2coc3cc(OCOC(=O)OC(C)C)cc(O)c3c2=O)cc1 | noticeable increased | 
COc1ccc(-c2coc3cc(OC(=O)C(C)C)cc(OC(=O)C(C)C)c3c2=O)cc1 [Biochanin A diisopropylate] | strongly increased | 
COc1ccc(-c2coc3cc(OC(=O)OC(C)C)cc(O)c3c2=O)cc1 [Biochanin A-7-isopropyl carbonate] | strongly increased | 
COc1ccc(-c2coc3cc(OC(=O)OC(C)C)cc(OC(=O)OC(C)C)c3c2=O)cc1 [Biochanin A diisopropyl carbonate] | strongly increased | 
COc1ccc(-c2coc3cc(O)cc(O)c3c2=O)cc1 [Biochanin A] | no or only minimal effect | no effect
COc1ccc(-c2coc3cc(OP(=O)([O-])[O-])cc(O)c3c2=O)cc1.[Na+].[Na+] [Biochanin A-7-phosphate disodium salt] | noticeable increased | 
COc1ccc(-c2coc3cc(O)cc(OC)c3c2=O)cc1 [5,4-dimethoxy-7-hydroxyisoflavone] | no or only minimal effect | 
CCCCNC(=O)Oc1cc(O)c2c(=O)c(-c3ccc(OC)cc3)coc2c1 [Biochanin A-7-butylcarbamate] | no or only minimal effect | 
COc1ccc(-c2coc3cc(OC(=O)C(C)C)cc(O)c3c2=O)cc1 [Biochanin A-7-isopropylate] | no or only minimal effect | 
C=CC(=O)Oc1cc(O)c2c(=O)c(-c3ccc(OC)cc3)coc2c1 [Biochanin A-7-acrylate] | noticeable increased | 
COc1ccc(-c2coc3cc(OC(=O)C(C)(C)C)cc(OC(=O)C(C)(C)C)c3c2=O)cc1 [Biochanin A-dipavalate, Biochanin A dipivalate] | noticeable increased | 
COC(=O)/C=C/C(=O)Oc1cc(OC(=O)/C=C/C(=O)OC)c2c(=O)c(-c3ccc(OC)cc3)coc2c1 [Biochanin A-di(methyl fumarate), Biochanin A di(methyl fumarate)] | strongly increased | 
COc1ccc(-c2coc3cc(OC(C)=O)cc(O)c3c2=O)cc1 [Biochanin A-7-acetate] | no or only minimal effect | 
CCCCC(=O)Oc1cc(OC(=O)CCCC)c2c(=O)c(-c3ccc(OC)cc3)coc2c1 [Biochanin A dipentanoate] | strongly increased | 
CCCCNC(=O)Oc1cc(OC(=O)NCCCC)c2c(=O)c(-c3ccc(OC)cc3)coc2c1 [Biochanin A di(butylcarbamate)] | strongly increased | 
CCCCC(=O)Oc1cc(O)c2c(=O)c(-c3ccc(OC)cc3)coc2c1 [Biochanin A-7-pentanoate] | no or only minimal effect | 
COC(=O)/C=C/C(=O)Oc1cc(O)c2c(=O)c(-c3ccc(OC)cc3)coc2c1 [Biochanin A-7-methyl fumarate] | no or only minimal effect | 
C=CC(=O)Oc1cc(OC(=O)C=C)c2c(=O)c(-c3ccc(OC)cc3)coc2c1 [Biochanin A diacrylate] | strongly increased | 
COc1ccc(-c2coc3cc(OC)cc(O)c3c2=O)cc1 [Biochanin A-7-methyl ether] | no or only minimal effect | 
COc1ccc(-c2coc3cc(OCOC(=O)C(C)(C)C)cc(O)c3c2=O)cc1 [7-pivaloxymethyl-Biochanin A, 7-Pivaloxymethyl-Biochanin A] | noticeable increased | 
COc1ccc(-c2coc3cc(OC(=O)C(C)(C)C)cc(O)c3c2=O)cc1 [Biochanin A-7-pivalate] | no or only minimal effect | 
